Values joined by “and” are separate entries in the source; they are usually repeats but may differ in a detail not shown here. Identical values can stand only once.
Tests used:
[1] = Prodrug aqueous stability at pH 7.4, 6.0 and 1.2; type: physicochemical
[2] = test system: BlaC; conditions: cited from earlier work
[3] = cited from earlier work
[4] = cited from earlier work; remark: listed apart in the source

Compound: C[C@@H](O)[C@H]1C(=O)N2C(C(=O)OCOC(=O)O[C@H]3CCCCc4ccccc43)=C(S[C@@H]3CN[C@H](C(=O)N(C)C)C3)[C@H](C)[C@H]12 [Compound 19, (S)-Benzosuber-1-yloxycarbonyloxymethyl (1R, 5S,6S)-2-{[(2S,4S)-2-(N,N-dimethylcarbamoyl)pyrrolidin-4-yl]thio}-6-[(1R)-1-hydroxyethyl]-1-methylcarbapen-2-em-3-carboxylate]
- times more stable to hydrolysis compared with 1-tetralyl (18 and 21) and 1-indanyl (17 and 20) prodrugs ([1]; intestinal pH): 37 times
- times more stable to hydrolysis compared with 1-tetralyl (18 and 21) and 1-indanyl (17 and 20) prodrugs ([1]; physiological pH): 20 times

Compound: CC(OC(=O)O[C@H]1CCCCc2ccccc21)OC(=O)C1=C(S[C@@H]2CN[C@H](C(=O)N(C)C)C2)[C@H](C)[C@@H]2[C@@H]([C@@H](C)O)C(=O)N12 (stereo partly drawn) [Compound 23a, (1S,1′S/R)-Benzosuber-1-yloxycarbonyloxyethyl (1R,5S,6S)-2-{[(2S,4S)-2-(N,N-dimethylcarbamoyl)pyrrolidin-4-yl]thio}-6-[(1R)-1-hydroxyethyl]-1-methylcarbapen-2-em-3-carboxylate]
- improvement of stability relative to prodrug 19 ([1]; 100 µM): about 2 fold

Compound: O=C(O)[C@H]1/C(=C/CO)O[C@@H]2CC(=O)N21 [clavulanate]
- inhibition of BlaC [2]: irreversibly inhibited

Compound: C[C@@H](O)[C@H]1C(=O)N2C(C(=O)OCOC(=O)O[C@@H]3CCc4ccccc43)=C(S[C@@H]3CN[C@H](C(=O)N(C)C)C3)[C@H](C)[C@H]12 [Compound 20, (R)-Indan-1-yloxycarbonyloxymethyl (1/R, 5S,6S)-2-{[(2S,4S)-2-(N,N-dimethylcarbamoyl)pyrrolidin-4-yl]thio}-6-[(1/R)-1-hydroxyethyl]-1-methylcarbapen-2-em-3-carboxylate]
- half-life at 100 µM ([1]; buffer, pH 7.4): < 1 min

Compound: CC(=O)N1C[C@@H](SC2=C(C(=O)OCOC(=O)O[C@H]3CCCCc4ccccc43)N3C(=O)[C@H]([C@@H](C)O)[C@H]3[C@H]2C)C[C@H]1C(=O)N(C)C [Compound 24a, (S)-Benzosuber-1-yloxycarbonyloxymethyl (1R,5S,6S)-2-{[(2S,4S)-1-acetyl-2-(N,N-dimethylcarbamoyl)pyrrolidin-4-yl]thio}-6-[(1R)-1-hydroxyethyl]-1-methylcarbapen-2-em-3-carboxylate]
- change in the hydrolysis rate relative to prodrug 19 ([1]; N-acetyl derivative, aqueous buffers): no significant change

Compound: C[C@@H](O)[C@H]1C(=O)N2C(C(=O)O)=C(S[C@@H]3CN[C@H](C(=O)N(C)C)C3)[C@H](C)[C@H]12 [Meropenem]
- oral absorption [3]: negligible
- Log D [4]: < −2.5

Compound: CC(C)OC(=O)OC(C)OC(=O)C1=C(S[C@@H]2CN[C@H](C(=O)N(C)C)C2)[C@H](C)[C@@H]2[C@@H]([C@@H](C)O)C(=O)N12 (some centres unmarked) [Compound 2]
- % of each diastereomer hydrolyzed to 1 ([1]; physiological pH 7.4, period of 2 hours): 10% and 13%

Compound: C[C@@H](O)[C@H]1C(=O)N2C(C(=O)OCOC(=O)O[C@@H]3CCCCc4ccccc43)=C(S[C@@H]3CN[C@H](C(=O)N(C)C)C3)[C@H](C)[C@H]12 [Compound 22, (R)-Benzosuber-1-yloxycarbonyloxymethyl (1R,5S, 6S)-2-{[(2S,4S)-2-(N,N-dimethylcarbamoyl)pyrrolidin-4-yl]thio}-6-[(1R)-1-hydroxyethyl]-1-methylcarbapen-2-em-3-carboxylate]
- times more stable to hydrolysis compared with 1-tetralyl (18 and 21) and 1-indanyl (17 and 20) prodrugs ([1]; intestinal pH): 37 times
- times more stable to hydrolysis compared with 1-tetralyl (18 and 21) and 1-indanyl (17 and 20) prodrugs ([1]; physiological pH): 20 times
